Legend:
[1] = test system: hypertrophic response to endothelin-1; conditions: in vitro; cited from earlier work
[2] = test system: cultured cardiomyocytes; conditions: α-adrenergic stimulation and Ca2+ channel agonists; cited from earlier work
[3] = test system: HDAC 5-green fluorescent protein (GFP) chimeric molecule; assay: subcellular distribution of HDAC 5-GFP in CaMKI-expressing cells exposed to leptomycinB; assay type: cell-based; conditions: CaMKI-expressing cells treated with leptomycinB
Text: In principle, nuclear exclusion of HDAC 5 could result from inhibition of nuclear import or stimulation of nuclear export. To distinguish between these possibilities, the subcellular distribution of an HDAC 5-green fluorescent protein (GFP) chimeric molecule was monitored in cells exposed to leptomycinB, a fungal toxin that blocks nuclear export. In CaMK1 expressing cells, HDAC 5 is localized to the cytoplasm.

[4] = test system: GAL4-MEF2C fusion protein; assay: activation of GAL4-MEF2C fusion protein in cardiomyocytes; assay type: cell-based, rat; conditions: stimulation of cardiomyocytes
Protocol: Preparation of primary rat cardiomyocytes. Cardiomyocyte cultures are prepared by dissociation of 1-day old neonatal rat hearts and were differentially plated to remove fibroblasts. To induce the hypertrophic response, AngII and PE are added to cardiomyocyte cultures at 10 nM and 10 μM, respectively, in serum-free M199 media. The culture media containing either agonist is changed every 12 hours for a period of 72 hours.
In light of the ability of MEF2 to respond to calcium-dependent signal transduction pathways in T cells, the inventors have investigated whether the same pathways also activate MEF2 in cardiomyocytes. […] When the C-terminus of MEF2C, which contains the transcription activation domains (TADs), but lacks the MADS and MEF2 domains required for DNA binding and dimerization, is fused to the DNA binding domain of the yeast transcription factor GAL4, the resulting GAL4-MEF2C fusion protein retains sensitivity to calcineurin and CaMKIV. This GAL4-MEF2C fusion protein is also activated by stimulation of cardiomyocytes with the hypertrophic agonist phenylephrine (PE).

[5] = test system: BZLF1; conditions: cited from earlier work

**Q.** For `COc1ccc(S(=O)(=O)N(CCO)c2ccccc2CN(C)C/C=C/c2ccc(Cl)cc2)cc1` [KN-93], which “effect on hypertrophic response to endothelin-1” value [1] is on record?
**A.** can block the hypertrophic response

**Q.** Which effect on hypertrophy [2] does the source give for `NCCCCCCNS(=O)(=O)c1cccc2c(Cl)cccc12` [W-7] here?
**A.** prevents hypertrophy

**Q.** With `CCC(=C/[C@H](C)C/C=C/C(C)=C/[C@@H](C)C(=O)[C@@H](C)[C@H](O)[C@@H](C)C/C(C)=C/C(=O)O)/C=C/[C@@H]1OC(=O)C=C[C@@H]1C` [leptomycinB] as the molecule, how does the “subcellular localization of HDAC 5” value [3] read?
**A.** translocation of HDAC 5 from the cytoplasm to the nucleus

**Q.** And the “time course of HDAC 5 translocation from cytoplasm to nucleus” value [3]?
**A.** 4 h

**Q.** For `CNC[C@H](O)c1cccc(O)c1` [phenylephrine], which “activation of GAL4-MEF2C fusion protein” value [4] is on record?
**A.** activated

**Q.** For cyclosporin A [CsA], which “effect on BZLF1 transcription” value [5] is on record?
**A.** inhibited
